From the NIST ThermoML archive (doi:10.1016/j.fluid.2014.04.021)
Numbers after ± are expanded uncertainties.

Conditions: 101 kPa, Liquid, Vibrating tube method

C1CCC2=NCCCN2CC1 [1,8-diaza-7-bicyclo[5.4.0]undecene]
Conditions	mass density [kg/m3]
293.15 K	1019.84 ± 0.24
298.15 K	1016.15 ± 0.24
303.15 K	1012.45 ± 0.24
308.15 K	1008.73 ± 0.24
313.15 K	1005 ± 0.23
318.15 K	1001.25 ± 0.23
323.15 K	997.479 ± 0.23
328.15 K	993.692 ± 0.23
333.15 K	989.886 ± 0.23
338.15 K	986.062 ± 0.23
343.15 K	982.224 ± 0.23
348.15 K	978.366 ± 0.23
353.15 K	974.493 ± 0.23
358.15 K	970.601 ± 0.23
